IC50 data for 1 compound are collected here from patent publication US5298511A, “Alkanoic acid derivatives” (Imperial Chemical Industries PLC, priority 1991, dated 1994).

pIC50: −log10 of the molar value.

The test has as its target T1, 5-LO (Homo sapiens, UniProt P09917).
T1 construct: incubating a test compound with heparinised human blood, prior to challenge with the calcium ionophore A23187; endogenous in cells; host or cells: blood cells in heparinised human whole blood, challenged with A23187
T1 sequence (P09917 1-674): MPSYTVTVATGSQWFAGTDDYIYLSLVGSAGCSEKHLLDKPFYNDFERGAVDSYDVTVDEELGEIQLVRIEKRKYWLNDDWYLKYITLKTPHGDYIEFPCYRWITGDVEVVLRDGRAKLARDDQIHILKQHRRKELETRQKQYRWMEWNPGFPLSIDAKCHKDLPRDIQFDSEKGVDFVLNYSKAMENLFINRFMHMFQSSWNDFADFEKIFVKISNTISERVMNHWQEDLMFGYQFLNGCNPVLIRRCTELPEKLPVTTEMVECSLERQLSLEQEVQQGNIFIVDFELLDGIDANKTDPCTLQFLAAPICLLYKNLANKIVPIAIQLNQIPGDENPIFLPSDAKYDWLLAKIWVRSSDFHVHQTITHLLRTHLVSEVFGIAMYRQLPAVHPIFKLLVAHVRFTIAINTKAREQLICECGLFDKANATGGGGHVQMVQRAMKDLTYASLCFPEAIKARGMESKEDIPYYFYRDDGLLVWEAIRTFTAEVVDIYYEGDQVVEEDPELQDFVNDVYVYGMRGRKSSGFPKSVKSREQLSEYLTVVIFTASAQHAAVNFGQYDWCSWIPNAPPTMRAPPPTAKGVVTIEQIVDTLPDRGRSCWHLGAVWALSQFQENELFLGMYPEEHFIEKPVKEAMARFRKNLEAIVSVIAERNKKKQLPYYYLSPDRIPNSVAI
In words: test a) in vitro heparinised human blood challenged with calcium ionophore A23187; LTB4 by radioimmunoassay. Type of test: cell-based. Here is the method:
a) An in vitro assay system involving incubating a test compound with heparinised human blood, prior to challenge with the calcium ionophore A23187 and then indirectly measuring the inhibitory effects on 5-LO by assaying the amount of LTB4 using specific radioimmunoassays described by Carey and Forder (F. Carey and R. A. Forder, Prostaglandins, Leukotrienes Med., 1986, 22, 57; Prostaglandins, 1984, 28, 666; Brit. J. Pharmacol. 1985, 84, 34 P) which involve the use of a protein-LTB4 conjugate produced using the procedure of Young et alia (Prostaglandins, 1983, 26(4), 605-613). The effects of a test compound on the enzyme cyclooxygenase (which is involved in the alternative metabolic pathway for arachidonic acid and gives rise to prostaglandins, thromboxanes and related metabolites) may be measured at the same time using the specific radioimmunoassay for thromboxane B2 (TxB2) described by Carey and Forder (see above). This test provides an indication of the effects of a test compound against 5-LO and also cyclooxygenase in the presence of blood cells and proteins. It permits the selectivity of the inhibitory effect on 5-LO or cyclooxygenase to be assessed.

One may read the pIC50 as the IC50 on a negative log10 scale, so that one unit is a factor of ten. With `CCOC(=O)C(CC)(CC)c1cccc(OCc2ccc3ccccc3c2)c1` [Example 1, ethyl 2-ethyl-2-[3-(naphth-2-ylmethoxy)phenyl]butyrate], the pIC50 was 6.70.
